Laboratory results: a compilation of properties of binary mixtures (doi:10.1016/j.molliq.2015.08.019)

Assay: xn = mol fraction of the nth substance listed
Conditions: 100 kPa

CCCC[n+]1ccn(C)c1.F[B-](F)(F)F + CN1CCCC1=O
speed of sound [m/s]
Conditions | x2 = 0.108 | x2 = 0.2114 | x2 = 0.3061 | x2 = 0.4422 | x2 = 0.5097 | x2 = 0.6155 | x2 = 0.7054 | x2 = 0.8025 | x2 = 0.9025
298.15 K | – | – | – | 1562.8 | 1562 | 1561.2 | – | 1559.1 | 1554.8
303.15 K | 1552.4 | 1552.2 | 1551.5 | 1549.9 | 1548.1 | – | 1544.1 | – | 1536.3
308.15 K | – | 1539.8 | – | 1536.6 | 1534.6 | 1531.5 | – | 1524.7 | 1518
313.15 K | 1528.3 | – | – | 1522.7 | 1520.8 | – | – | 1507 | –
318.15 K | 1516.4 | – | 1512.8 | 1510.1 | 1506.8 | 1501.7 | 1496.4 | 1490.4 | 1482.5
323.15 K | – | 1502.8 | 1499.9 | 1496.7 | 1492.4 | 1486.5 | 1480.7 | 1473.2 | 1464.1

CN1CCCC1=O + CCCC[n+]1ccn(C)c1.F[B-](F)(F)F
x1 = 1
Conditions | speed of sound [m/s]
298.15 K | 1543.8
303.15 K | 1524.3
308.15 K | 1505
313.15 K | 1485.7
318.15 K | 1466.7
